Measurements taken from patent US7635779B2, “Oxy substituted flavones as antihyperglycemic and antidyslipidemic agents” (Council of Scientific & Industrial Research, priority 2004, dated 2009).
Where two headings read alike, the source gives them in different places.

Legend:
[1] = system: streptozotocin-induced diabetic rats; assay: Sucrose-challenged streptozotocin-induced diabetic rats (STZ-S); type: in vivo, rat; details: 100 mg/kg oral
Description: Male albino rats of Sprague Dawley strain of body weight 160+20 g were selected for this study. Streptozotocin (Sigma, USA) was dissolved in 100 mM citrate buffer pH 4.5 and calculated amount of the fresh solution was injected to overnight fasted rats (45 mg/kg) intraperitoneally. Blood glucose level was checked 48 h later by glucostrips and animals showing blood glucose values between 144 to 270 mg/dl (8 to 15 mM) were included in the experiment and termed diabetic. The diabetic animals were divided into groups consisting of five to six animals in each group. Animals of experimental groups were administered suspension of the desired test samples orally (made in 1.0% gum acacia) at a dose of 100-mg/kg-body weight. Animals of control group were given an equal amount of 1.0% gum acacia. A sucrose load of 2.5-g/kg body weight was given after 30 minutes of compound administration. After 30 minutes of post sucrose load blood glucose level was again checked by glucostrips at 30, 60, 90, 120, 180, 240, 300 min and at 24 h, respectively. Animals not found diabetic after 24 hours post treatment of the test sample were not considered and omitted from the calculations and termed as non-responders. […] Food but not water was withheld from the cages during the experimentation. Comparing the AUC of experimental and control groups determined the percent antihyperglycemic activity. Statistical comparison between groups was made by Student's ‘t’ test.
As depicted in the FIGURE, a dose response curve of 34 was obtained by administering different doses of test compound to streptozotocin-induced diabetic rats (Table 6). […]

[2] = system: triton WR-1339 induced hyperlipidemic rats; assay: Triton model, antidyslipidemic activity; type: in vivo, rat; details: Rattus norvegicus, 100 mg/kg oral, plasma after 18 h
Description: Male Charles foster rats weighing 200-225 g were divided into control, hyperlipidemic and hyperlipidemic plus drug treated groups containing six animals in each group. Hyperlipidemia was induced by administration of triton WR-1339 (200 mg/kg i.p.). All animals were maintained on a special pellet diet and water ad libitum. Compounds and standard drug were macerated with 0.2% aqueous gum acacia suspension. The suspension was fed orally at the dose of 100 mg/kg simultaneously with triton in drug treated group. The animals of control group received the same amount of gum acacia by similar route of administration. At the end of the experiment, after 18 h, blood was withdrawn from retro orbital plexus and plasma was used for the assay of total cholesterol, phospholipid and triglycerides.
Cholesterol was estimated using the kit provided by Roche Diagnostics. Cholesterol esters are enzymatically hydrolyzed by cholesterol esterase (CE) to cholesterol and free fatty acids. Free cholesterol, including that originally present, is then oxidized by cholesterol oxidase (CO) to cholest-4-en-3-one and hydrogen peroxide. The hydrogen peroxide combines with hydroxy benzoic acid (HBA) and 4-aminoantipyrine (4AAA) in the presence of peroxidase (POD) to form a chromophore (quinoneimine dye), which may be quantitated at 500-505 nm. The intensity of red colour formed is directly proportional to the concentration of total cholesterol in the specimen and measured spectrophotometrically (Searcy, C. L. Diagnostic Biochemistry, 1969, McGraw Hill, New York; Ellefson, R. D.; Caraway, W. T. Fundamentals of clinical chemistry, 1976, Ed Tietz N W, 506-515.)
Triglycerides were estimated using the kit provided by Roche Diagnostics. Lipoprotein lipase hydrolyses triglycerides to yield glycerol and fatty acids. Glycerol kinase converts glycerol to glycerol-3-phosphate, which is oxidized by glycerol phosphate oxidase to dihydroxy acetone phosphate and hydrogen peroxide. In the presence of peroxidase, hydrogen peroxide oxidatively couples with 4-aminoantipyrine and 4-chloro phenol to produce red quinonimine dye. The intensity of red colour formed is directly proportional to the concentration of triglycerides in the specimen and is measured by photometrically (Wahlefeld, A. W.; Bergmeyer, H. U. Ed. Methods of enzymatic analysis, 2nd English edition, New York, N.Y., Academic press inc, 1831-1840.).
Serum (0.2 mL) and perchloric acid (1.0 mL) was digested at 180° C. for 1-1.5 h till the solution became colorless. The liberated inorganic phosphate (Pi) was measured by the method of Fiske and Subbarow (Fiske, C. H.; Subbarow, V. J. Biol. Chem. 1925, 66, 375.). 1 mL of 2.5% ammonium molybdate (prepared in 5 N sulphuric acid) and 0.5 mL reducing agent (4-amino naphthol sulphonic acid, 0.2%), sodium metabisulphite (2.4% w/v in distilled water) was added to the above tubes and mixed well. The reaction mixture was […] with 2.5 mL of triple distilled water and kept at 60° C. in water bath for 20 min. For standard, an appropriate amount of potassium dihydrogen phosphate dissolved in triple distilled water containing 2-10 μg phosphorous (Pi) was run simultaneously with the experiment tubes. The optical density of the blue colour was recorded at 620 nm against reagent blank. The values of Pi were converted into phospholipid by multiplying with 25 (a constant calibrated from Pi value of lecithin).

sucrose loaded rat = assay: Sucrose loaded rat model (SLM), antihyperglycemic activity; type: in vivo; details: for inhibition in vivo at 100 mg/kg: Rattus norvegicus, po, 2 h, read-out: % Fall in blood glucose levels, SLM
Description: Male albino rats of Charles Foster/Wistar strain of average body weight 160±20 g were selected for this study. The blood glucose level of each animal was checked by glucometer using glucostrips (Boehringer Mannheim) after 16 h starvation. Animals showing blood glucose levels between 3.33 to 4.44 mM (60 to 80 mg/dl) were divided into groups of five to six animals in each. Animals of experimental group were administered suspension of the desired synthetic compound orally (made in 1.0% gum acacia) at a dose of 100-mg/kg-body weight. Animals of control group were given an equal amount of 1.0% gum acacia. A sucrose load (10.0 g/kg) was given to each animal orally exactly after 30 min post administration of the test sample/vehicle. Blood glucose profile of each rat was again determined at 30, 60, 90 and 120 min post administration of sucrose by glucometer. Food but not water was withheld from the cages during the course of experimentation. Quantitative glucose tolerance of each animal was calculated by Area Under Curve (AUC) method (Prism Software). Comparing the AUC of experimental and control groups determined the percentage antihyperglycemic activity. Statistical comparison was made by Dunnett's test.

[3] = phospholipid, read-out: % Fall in lipid levels (Triton model) PL
[4] = total cholesterol, read-out: % Fall in lipid levels (Triton model) TC
[5] = triglycerides, read-out: % Fall in lipid levels (Triton model) TG

With `O=c1cc(-c2cc(OCc3ccccc3)cc(OCc3ccccc3)c2)oc2cc(OCC(O)CN3CCN(c4ccccc4)CC3)ccc12` (stereo not shown) [Compound 36, 3′,5′-Dibenzyloxy-7-[2-hydroxy-3-(4-phenylpiperazin-1-yl)-propoxy]-flavone] the “% Fall in blood glucose levels, STZ-S 5 h” value (from here on “% Fall … STZ-S 5 h”) [1] was “NIL”, the “% Fall in blood glucose levels, STZ-S 24 h” value (“% Fall … STZ-S 24 h” for short) [1] was 2.46% and the inhibition in vivo at 100 mg/kg [2, 3] was 21%. The inhibition in vivo at 100 mg/kg [2, 4] was 24%, the inhibition in vivo at 100 mg/kg [2, 5] was 17% and the inhibition in vivo at 100 mg/kg (sucrose loaded rat) was 34.6%. For the same compound, the melting point was 168 to 170 °C.

For `CC(C)(C)NCC(O)COc1ccc2oc(-c3ccc(OCc4ccccc4)c(OCc4ccccc4)c3)cc(=O)c2c1` (stereo not shown) [Compound 39, 6-(3-tert-Butylamino-2-hydroxy-propoxy)-3′,4′-dibenzyloxy-flavone], the “% Fall … STZ-S 5 h” value [1] was 14.9%, the “% Fall … STZ-S 24 h” value [1] was 0.36% and the inhibition in vivo at 100 mg/kg [2, 3] was 12%. For the same compound, the inhibition in vivo at 100 mg/kg [2, 4] was 21%, the inhibition in vivo at 100 mg/kg [2, 5] was 17% and the inhibition in vivo at 100 mg/kg (sucrose loaded rat) was 21.8%. For the same compound, the melting point was 156 to 157 °C.

In the case of `COc1cc(-c2cc(=O)c3ccc(OCC(O)CNC(C)C)cc3o2)cc(OC)c1OC` (stereo not shown) [Compound 41, 7-(2-Hydroxy-3-iso-propylamino-propoxy)-3′,4′,5′-trimethoxy-flavone], the “% Fall … STZ-S 5 h” value [1] is reported as 17.4%, the “% Fall … STZ-S 24 h” value [1] is reported as 19.1% and the inhibition in vivo at 100 mg/kg [2, 3] is reported as 16%. For the same compound, the inhibition in vivo at 100 mg/kg [2, 4] was 18%, the inhibition in vivo at 100 mg/kg [2, 5] was 19% and the inhibition in vivo at 100 mg/kg (sucrose loaded rat) was 20.7%. The melting point was 106 to 107 °C.

With `COc1cc(OC)cc(-c2cc(=O)c3ccc(OCC(O)CNC(C)C)cc3o2)c1` (stereo not shown) [Compound 44, 3′,5′-Dimethoxy-7-[2-hydroxy-3-iso-propylamino-propoxy]-flavone] the inhibition in vivo at 100 mg/kg [2, 3] was 21%, the inhibition in vivo at 100 mg/kg [2, 4] was 17% and the inhibition in vivo at 100 mg/kg [2, 5] was 24%. For the same compound, the inhibition in vivo at 100 mg/kg (sucrose loaded rat) was 1.36% and the melting point was 155 to 156 °C.

With `COc1cc(OC)cc(-c2cc(=O)c3ccc(OCC(O)CN4CCN(c5ccccc5)CC4)cc3o2)c1` (stereo not shown) [Compound 45, 3′,5′-Dimethoxy-7-[2-hydroxy-3-(4-phenylpiperazin-1-yl)-propoxy]-flavone] the inhibition in vivo at 100 mg/kg [2, 3] was 20%, the inhibition in vivo at 100 mg/kg [2, 4] was 30% and the inhibition in vivo at 100 mg/kg [2, 5] was 31%. The “% Fall in blood glucose levels, SLM” value (sucrose loaded rat; 100 mg/kg oral, AUC vs control) was “NIL” and the melting point was 195 to 196 °C.

`COc1ccc(-c2cc(=O)c3ccc(OCC(O)CN4CCN(c5ccccc5)CC4)cc3o2)cc1OC` (stereo not shown) [Compound 47, 3′,4′-Dimethoxy-7-[2-hydroxy-3-(4-phenylpiperazin-1-yl)-propoxy]-flavone] gave an inhibition in vivo at 100 mg/kg [2, 3] of 22%, an inhibition in vivo at 100 mg/kg [2, 4] of 23% and an inhibition in vivo at 100 mg/kg [2, 5] of 19%. It also gave an inhibition in vivo at 100 mg/kg (sucrose loaded rat) of 5.45% and a melting point of 191 to 193 °C.

For `CC(C)(C)NCC(O)COc1ccc2c(=O)cc(-c3cc(O)cc(O)c3)oc2c1` (stereo not shown) [Compound 48, 7-(3-tert-Butylamino-2-hydroxy-propoxy)-3′,5′-dihydroxy-flavone], the “% Fall … STZ-S 5 h” value [1] was “NIL”, the “% Fall … STZ-S 24 h” value [1] was “NIL” and the inhibition in vivo at 100 mg/kg [2, 3] was 4%. The inhibition in vivo at 100 mg/kg [2, 4] was 17%, the inhibition in vivo at 100 mg/kg [2, 5] was 16% and the inhibition in vivo at 100 mg/kg (sucrose loaded rat) was 19.1%. For the same compound, the melting point was 153 °C (dec.).
